Results from paper PMC9322767, “Novel Unspecific Peroxygenase from Truncatella angustata Catalyzes the Synthesis of Bioactive Lipid Mediators” (Microorganisms, 2022).
Structures can show the parent of a compound that is named as a salt. Where two headings read alike, the source gives them in different places.

Experiments:
TanUPO [1] = conditions: read-out: apparent kinetic parameters; co-substrate H2O2 2 mM; McIlvaine buffer pH 4.5
TanUPO [2] = system: T1, TanUPO; assay: HPLC-ELSD of […],15-EET formation; format: biochemical, Truncatella angustata; conditions: co-substrate H2O2 (from glucose/glucose oxidase); 20 mM phosphate pH 7.0, 30 °C, 20% (v/v) acetone; sigmoidal kinetics (Hill)
T1 construct: native wild-type purified from culture of own fungal isolate; glycosylated heme-thiolate protein

SMILES: CCn1c(=NN=c2sc3cc(S(=O)(=O)O)ccc3n2CC)sc2cc(S(=O)(=O)O)ccc21 [ABTS, 2,2′-azino-di(3-ethylbenzthiazoline-6-sulfonate) di-ammonium salt]
- Km (TanUPO [1]): 257 µM

SMILES: CCCCC/C=C\C/C=C\C/C=C\C/C=C\CCCC(=O)O [arachidonic acid, (5Z,8Z,11Z,14Z)-5,8,11,14-eicosatetraenoic acid]
- Km (TanUPO [2]): ~200 µM
